Where two headings read alike, the source gives them in different places.
Assays:
[1] = Organ-level biodistribution of ICG-loaded nanostructures by IVIS NIR fluorescence imaging; assay type: in vivo, mouse; conditions: 24 h after I.V. injection, C57BL/6 mice
From the text: Nanomaterials have been widely used to deliver therapeutic agents in vivo, and their tissue distribution can either limit or enhance such applications. ICG-loaded MC, PS and FM were therefore assembled at a 33:1 molar ratio of copolymer:dye, and their biodistributions were compared to control injections of free form ICG and PBS in naïve C57BL/6 mice. Liver, spleen, kidneys, lung and heart were harvested and investigated with an IVIS optical imaging system. Following I.V. injection, ICG usually has a half-life of less than 10 minutes primarily due to removal from circulation in the liver.
The ICG-loaded MC, PS and FM were prepared with the optimal molar ratio of PEG-bl-PPS:ICG (33:1) and suspended in PBS. Free ICG (50 μg/mL in PBS solution) served as a control. C57BL/6 mice (n=6) were injected intravenously with 150 μl of free ICG, MC, PS and FM (7.5 μg of loaded ICG in each sample). At different time points (1 h, 24 h, and 48 h post-injection), whole-body NIR fluorescence imaging was performed using an IVIS Lumina (Center for Advanced Molecular Imaging, Northwestern University) with λexc=745 nm, λem=810 nm, exposure time=2 s and f/stop=2. For organ NIR fluorescence imaging, animals were euthanized by carbon dioxide and liver, spleen, kidney, heart, and lung were harvested in petri dishes and imaged by the IVIS Lumina with the same parameters as previous.

[2] = removal from circulation in the liver; cited from earlier work
[3] = tested on: macrophages (CD11b+F4/80+); conditions: mouse, in vivo
Experimental: Multi-color flow cytometry was performed to evaluate the uptake of NS of the present invention within cells of the innate and adaptive immune system. Mice were administered DyLight 650-labeled PS, MC and FM by tail vein injection. After different time points (1 h, 24 h, and 48 h), spleen, LN, liver, kidneys, and blood were collected and prepared into single cell suspensions for analysis (gating strategies shown in FIG. 11). For all organs evaluated, NS were predominantly taken up by phagocytic cells in the MPS (FIG. 3, FIG. 12).
C57BL/6 female mice (n=6-8), were injected intravenously with 150 μl of MC, PS, and FM with block copolymer concentration of 15 mg/mL. At different time points (1 h, 24 h, and 48 h post-injection), mice were anesthetized by intraperitoneal (i.p.) injection of a mixture of Ketamine/Xylazine followed by exsanguination. Blood was collected by retro-orbital puncture with BD Microtainer tubes and dipotassium EDTA (BD Biosciences). Serum was separated by centrifugation at 3000 rpm at 4° C. for 25 min. Fluorescence intensity of each nanostructure was normalized by diluting NS solutions in PBS and measuring the fluorescence using a spectrophotometer. The fluorescence of blood serum was measured with an excitation of 655 nm and the emission of 675 nm and correlated with the normalized standard curve for each DyLight 650-labeled NS. To prepare white blood cell suspensions, blood cells were washed twice with 10 ml PBS and treated 3× with ammonium-chloride-potassium (ACK) lysis buffer (Invivogen) to eliminate red blood cells. Liver, spleen, LN (popliteal, inguinal, axillary and brachial), and kidneys were harvested, gently dissociated and incubated in a 12-well plate with each well of 2 ml Collagenase D (2 mg/mL) for 45 min at 37° C. and 5% CO2. Single-cell suspensions were prepared by mechanical dissociation and passing through a 70 μm cell strainer. Anti-mouse CD16/CD32 was used to block FcRs and Zombie Aqua fixable viability dye was used to determine live/dead cells. For flow cytometric analysis, cells were stained using cocktails of fluorophore-conjugated anti-mouse antibodies: panel 1: CD45-FITC, CD3-APC/Cy7, CD4-PE, CD8α-PE/Cy7, NK1.1-PerCP-Cy5.5, CD19-Pacific Blue; panel 2: I-A/I-E-FITC, CD11c-Pacific Blue, CD8α-PE-Cy7, CD11b-PerCP-Cy5.5, CD45RB/B220-PE, Gr-1-APC-Cy7; and panel 3: F4/80-FITC, CD11c-Pacific Blue, CD11b-PerCP-Cy5.5, Ly6C-APC/Cy7, Ly6G-PE/Cy7. After washes, cells were fixed by IC cell fixation buffer (Biosciences). Flow cytometry was performed with FACSDiva on a LSRII flow cytometer (BD Biosciences) and data were analyzed with FlowJo software.

Compound	ICG fluorescence in organs [1]	half-life following I.V. injection [2]	decrease in uptake by liver macrophages on switching from MC to PS morphology [3]	percentage of macrophages nanostructure positive [3]	percentage of macrophages nanostructure positive ([3]; iv)
CC1(C)C(/C=C/C=C/C=C/C=C2\N(CCCCS(=O)(=O)O)c3ccc4ccccc4c3C2(C)C)=[N+](CCCCS(=O)(=O)[O-])c2ccc3ccccc3c21 [ICG, indocyanine green]	no observable fluorescence	less than 10 minutes			
PEG17-bl-PPS30			over 50%	40%	30%-40%
PEG44-bl-PPS45 [FM]				25%	
PEG45-bl-PPS20 [MC]				over 90%	

— US10821078B2, “Nanostructure enhanced targeting (NSET) of inflammatory cells” (Northwestern University, priority 2016, dated 2020)
